According to patent publication EP1628135A1, “Method for detecting medically relevant conditions in a solubilized LBC sample” (MTM Laboratories AG, priority 2004, dated 2006):
Read-outs that look alike come from different tables or passages of the source. Where a SMILES comes first, the peptide text is derived from it. [ ]: non-standard residue; d: D form. The star is where a group is joined. Sta = CC(C)C[C@H](N)[C@@H](O)CC(=O)O; Isovaleryl = CC(C)CC(=O)*

Legend:
[1] = test system: p16^INK4a; test: Stabilization of p16INK4a by proteinase inhibitors in mtm lysis medium
[2] = Stability of proteinase inhibitors in water
[3] = Solubility of proteinase inhibitors in water
[4] = inhibitor at the concentration listed in Table 2

p16^INK4a stabilization in mtm Lysis medium [1, 4] | stability in water [2] | Solubility in water [3] | SMILES | p16^INK4a stabilization in mtm Lysis medium [1]
no | poor | bad | c1cnc2c(c1)ccc1cccnc12 [o-Phenanthroline] | –
no | good | poor | CC(C)C[C@H](NC(=O)N[C@H](C(=O)N[C@@H](CCC(N)=O)C(=O)N[C@@H](C)C=O)[C@@H]1CCNC(=N)N1)C(=O)O [Elastatinal] | –
no | poor | bad | CCOC(=O)[C@H]1O[C@@H]1C(=O)N[C@@H](CC(C)C)C(=O)NCCC(C)C [EST] | –
no | poor | poor | CCOC(=O)[C@@H]1O[C@H]1C(=O)NC(CC(C)C)C(=O)N1CCN(Cc2ccc(OC)c(OC)c2OC)CC1.CCOC(=O)[C@@H]1O[C@H]1C(=O)NC(CC(C)C)C(=O)N1CCN(Cc2ccc(OC)c(OC)c2OC)CC1.O=S(=O)(O)O (stereo partly shown) [NCO-700] | –
no | good | good | CC(C)C[C@H](NC(=O)[C@@H](O)[C@H](N)Cc1ccccc1)C(=O)O [Bestatin] | –
no | good | good | CCCC[C@@H](C=O)NC(=O)[C@H](CC(C)C)NC(=O)OCc1ccccc1 [Calpeptin] | –
no | good | good | CC(C)C[C@H](NC(=O)[C@H]1O[C@@H]1C(=O)O)C(=O)NCCCCN=C(N)N [E-64] | –
no | good | good | N=C(N)c1ccccc1 [Benzamidine] | –
– | – | – | O=C(O)CN(CCN(CC(=O)O)CC(=O)O)CC(=O)O [EDTA] | no

SMILES | p16^INK4a stabilization in mtm Lysis medium [1, 4] | stability in water [2] | Solubility in water [3] | p16^INK4a stabilization in mtm Lysis medium [1]
NCCc1ccc(S(=O)(=O)F)cc1 [Pefabloc= AEBSF, AEBSF] | yes | – | – | –
CC(=O)N[C@@H](CC(C)C)C(=O)N[C@@H](CC(C)C)C(=O)N[C@H](C=O)CCCNC(=N)N [Leupeptin] | no | good | good | –
O=S(=O)(F)Cc1ccccc1 [PMSF] | yes | – | – | –
CC(C)CC(=O)N[C@H](C(=O)N[C@H](C(=O)N[C@@H](CC(C)C)[C@@H](O)CC(=O)N[C@@H](C)C(=O)N[C@@H](CC(C)C)[C@@H](O)CC(=O)O)C(C)C)C(C)C [Pepstatin A] (Isovaleryl-VV[Sta]A[Sta]-OH) | no | – | – | –
